Laboratory results taken from ChEMBL document CHEMBL1123653 (J Med Chem, 1987).

How the values were obtained:
[1] = target: T1, Serotonin 1 (5-HT1) receptor (Rattus norvegicus, UniProt P28564+P30940+P19327+P28565)
[2] = target: T2, Serotonin 2 (5-HT2) receptor (Rattus norvegicus, UniProt P30994+P08909+P14842)
[3] = target: T3, 5-hydroxytryptamine receptor 1A (Rattus norvegicus, UniProt P19327)
T3 sequence (P19327 whole entry): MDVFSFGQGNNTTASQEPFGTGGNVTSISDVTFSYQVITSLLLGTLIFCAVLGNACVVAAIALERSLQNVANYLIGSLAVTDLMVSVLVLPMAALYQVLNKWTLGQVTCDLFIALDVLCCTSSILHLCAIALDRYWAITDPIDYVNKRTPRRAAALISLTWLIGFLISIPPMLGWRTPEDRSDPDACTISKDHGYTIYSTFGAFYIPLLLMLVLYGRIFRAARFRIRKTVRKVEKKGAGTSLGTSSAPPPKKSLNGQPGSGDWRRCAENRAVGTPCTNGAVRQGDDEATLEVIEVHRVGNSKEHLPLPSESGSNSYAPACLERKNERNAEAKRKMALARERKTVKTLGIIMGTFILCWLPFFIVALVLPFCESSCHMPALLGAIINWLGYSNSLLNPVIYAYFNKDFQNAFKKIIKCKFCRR

[4] = target: T4, 5-hydroxytryptamine receptor 1B (Rattus norvegicus, UniProt P28564)
T4 sequence (P28564 whole entry): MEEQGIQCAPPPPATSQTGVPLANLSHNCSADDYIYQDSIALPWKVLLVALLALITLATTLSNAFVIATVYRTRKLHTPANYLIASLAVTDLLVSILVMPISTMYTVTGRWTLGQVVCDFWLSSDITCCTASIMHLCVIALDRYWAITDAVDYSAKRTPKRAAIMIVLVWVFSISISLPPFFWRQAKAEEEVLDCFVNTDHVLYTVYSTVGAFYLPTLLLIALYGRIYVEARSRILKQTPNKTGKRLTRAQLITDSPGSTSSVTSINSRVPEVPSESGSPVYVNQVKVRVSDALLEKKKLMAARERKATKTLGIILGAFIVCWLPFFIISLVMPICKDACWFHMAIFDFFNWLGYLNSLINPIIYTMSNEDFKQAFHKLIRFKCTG

[5] = target: T1, Serotonin 1 (5-HT1) receptor; experiment: Binding affinity towards 5-hydroxytryptamine 1 receptor was determined; format: protein assay
[6] = target: T2, Serotonin 2 (5-HT2) receptor; experiment: Binding affinity to rat cortical membranes at 5-hydroxytryptamine 2 receptor binding site by using [3H]- DOB as a radioligand.
[7] = target: T2, Serotonin 2 (5-HT2) receptor; experiment: Binding affinity to rat cortical membranes at 5-hydroxytryptamine 2 receptor binding site by using [3H]- DOB as a radioligand
[8] = target: T2, Serotonin 2 (5-HT2) receptor; remark: listed apart in the source
[9] = target: T4, 5-hydroxytryptamine receptor 1B; remark: listed apart in the source
Description: Binding affinity towards 5-HT1B was determined

[10] = target: T2, Serotonin 2 (5-HT2) receptor; remark: listed apart in the source
[11] = target: T2, Serotonin 2 (5-HT2) receptor; remark: listed apart in the source

Compound | Ki [1] [µM] | Ki [2] [nM] | Ki [3] [nM] | Ki [4] [nM] | other results
COc1cc(C[C@H](C)N)c(OC)cc1I | 0.92 | 35 |  |  | 
CN[C@H](C)Cc1cc(OC)c(C)cc1OC | 4.3 | 260 |  |  | 
COc1cc([N+](=O)[O-])c(OC)cc1C[C@@H](C)N | 13.2 | 210 |  |  | 
NCCc1c[nH]c2ccc(C(N)=O)cc12 |  |  | 0.2 | 5 | 
NCCc1c[nH]c2cccc(O)c12 |  | 725 | 95 | 1050 | 
CNC(C)Cc1cc(OC)c(C)cc1OC (configuration not stated) | 3.87 | 415 |  |  | 
NCCc1c[nH]c2cc(O)ccc12 |  | 11500 | 1590 | 5890 | 
C[C@@H](N)Cc1ccc2c(c1)OCO2 | 13 |  |  |  | 
COc1cc(CC(C)N)c(OC)cc1F (configuration not stated) | 3.37 | 1110 |  |  | 
FC(F)(F)c1cccc(N2CCNCC2)c1 | 0.02 |  | 1950 | 30 | 
c1ccc2c(N3CCNCC3)cccc2c1 |  |  |  |  | Ki [5]: 5 nM
CNCCc1c[nH]c2ccc(O)cc12 |  | 180 | 5 | 45 | 
COc1ccc(CC(C)N)cc1OC (configuration not stated) | 64.6 | 43300 |  |  | 
c1ccc2cc(N3CCNCC3)ccc2c1 |  |  |  |  | Ki [5]: 265 nM
COc1cc(C[C@@H](C)N)c(OC)cc1C | 3.55 |  |  |  | 
COc1cc(C[C@H](C)N)c(OC)cc1Br | 5 |  |  |  | 
CCc1cc(OC)c(CC(C)N)cc1OC (configuration not stated) | 4.57 |  |  |  | 
COc1cc([N+](=O)[O-])c(OC)cc1CC(C)N (configuration not stated) | 14.1 | 300 |  |  | 
COc1cc(OC)c(OC)cc1CC(C)N (configuration not stated) | 46.4 |  |  |  | 
CCCc1cc(OC)c(CC(C)N)cc1OC (configuration not stated) | 3.17 | 69 |  |  | 

Compound | Ki [1] [µM] | Ki [2] [nM] | Ki [3] [nM] | Ki [4] [nM] | other results
CC(C)NCC(O)COc1cccc2[nH]ccc12 (single isomer, unassigned; (-)) [PINDOLOL] |  |  | 20 |  | 
COc1cc(C[C@@H](C)N)c(OC)cc1Br (stereo in doubt; form 1) | 4.2 |  |  |  | 
COc1cc(C[C@@H](C)N)c(OC)cc1Br (stereo in doubt; form 2) | 4.2 |  |  |  | 
CCCN(CCC)C1CCc2cccc(O)c2C1 (configuration not stated) [8-OH-DPAT] |  | 5500 |  |  | Ki [6]: 700 nM
CN(C)CCc1c[nH]c2ccc(O)cc12 [BUFOTENINE] |  | 380 | 259 | 910 | 
Clc1cccc(N2CCNCC2)c1 [CHLOROPHENYLPIPERAZINE] |  |  | 2400 | 75 | 
CN(C)CCCSc1ccccc1NC(=O)/C=C/c1ccccc1 [CINANSERIN] | 3.5 | 4 |  | 1000 | Ki [7]: 4 nM; Ki [8]: 4 nM
COc1cc(CC(C)N)c(OC)cc1C (configuration not stated) [DOM] | 2.89 |  |  |  | 
O=C1c2ccccc2S(=O)(=O)N1CCCCN1CCN(c2ncccn2)CC1 [IPSAPIRONE] |  |  |  |  | IC50 [9]: 26 µM; IC50 [10]: 10 µM
O=C(c1ccc(F)cc1)C1CCN(CCn2c(=O)[nH]c3ccccc3c2=O)CC1 [KETANSERIN] |  |  | 1900 | 1900 | 
COc1ccc2[nH]cc(CCN(C)C)c2c1 [MEBUFOTENIN] | 0.05 |  | 20 | 90 | 
CN1C[C@@H](NS(=O)(=O)N(C)C)C[C@@H]2c3cccc4c3c(cn4C)C[C@H]21 [MESULERGINE] |  |  | 300 | 13000 | 
CN1C[C@H](CNC(=O)OCc2ccccc2)C[C@@H]2c3cccc4c3c(cn4C)C[C@H]21 [METERGOLINE] | 0.02 |  | 6 | 25 | 
COc1ccc(CC(C)N)cc1 (configuration not stated) [PARA-METHOXYAMPHETAMINE] | 79.4 | 33600 |  |  | 
c1ccc(N2CCNCC2)cc1 [PHENYLPIPERAZINE] |  |  |  |  | Ki [5]: 135 nM
Cc1nc2ccccn2c(=O)c1CCN1CCC(C(=O)c2ccc(F)cc2)CC1 [PIRENPERONE] |  |  | 1700 | 6600 | Ki [8]: 1 nM; Ki [11]: 0.3 nM
c1ccc2nc(N3CCNCC3)ccc2c1 [QUIPAZINE] |  |  |  | 320 | Ki [7]: 17 nM; Ki [8]: 645 nM
COc1ccc2[nH]cc(C3=CCNCC3)c2c1 [RU-24969] |  |  |  | 4 | 
O=C(CCCN1CCC2(CC1)C(=O)NCN2c1ccccc1)c1ccc(F)cc1 [SPIPERONE] | 0.16 |  | 40 | 4800 | 
NCCc1c[nH]c2ccccc12 [TRYPTAMINE] |  | 2895 | 170 |  | Ki [7]: 50 nM
